# Article PMC10866072, “Design, synthesis, molecular modelling and biological evaluation of novel 6-amino-5-cyano-2-thiopyrimidine derivatives as potent anticancer agents against leukemia and apoptotic inducers” (Journal of Enzyme Inhibition and Medicinal Chemistry, 2024)
# Columns and labels:
# KM12 = assay type: cell-based; settings: Homo sapiens, one dose 10^-5 M, 48 h
# [1] = system: full NCI 60 cell lines panel; settings: for activity at 10 µM: Homo sapiens, 60 cell, 48 h, read-out: Mean % growth
# Procedure: 60 different human tumour cell lines-representing leukaemia, melanoma, and malignancies of the lung, colon, brain, ovary, breast, prostate, and kidney are used in the operation of this screen.
# Compounds were dissolved in DMSO: glycerol (91) and were kept in a freezer at −70° C. The synthesised compounds were introduced to the culture at a single concentration of 1 0 ^−5 M and left to incubate for 48 h. A protein-binding dye called sulforhodamine B was used to measure end points (SRB).
# A mean graph showing the % growth of treated cells is used to represent the one-dose data. The value provided for the One-dose assay represents growth in comparison to the no-drug control and to the number of cells at time zero. This enables the identification of lethality (values between 0 and 100) as well as growth inhibition (values less than 0). A value of 100, for instance, indicates no growth inhibition. A value of 40 would indicate 60% growth inhibition. A value of 0 indicates no net growth over the course of the experiment. A value of −40 would indicate 40% lethality.
# Furthermore, the average sensitivity of all cell lines to the compound is termed as the full panel mean graph midpoints (MG-MID). The complete panel mean graph midpoints refers to the average sensitivity of all cell lines to the chemical (MG-MID). A measure of a compound’s selectivity for a given cell line is the ratio created by dividing the full panel mean graph midpoints (MG-MID) concentration by the individual subpanel MG-MID concentrations (obtained as the average sensitivity of all the cell lines in a given subpanel to the test compound).
# SF-295 = assay type: cell-based; settings: Homo sapiens, one dose 10^-5 M, 48 h
# SR = assay type: cell-based; settings: Homo sapiens, one dose 10^-5 M, 48 h
# MCF7 = assay type: cell-based; settings: Homo sapiens, one dose 10^-5 M, 48 h, read-out: % growth
# HCT-116 = assay type: cell-based; settings: Homo sapiens, one dose 10^-5 M, 48 h, read-out: % growth
# IGROV1 = assay type: cell-based; settings: Homo sapiens, IGROV-1, one dose 10^-5 M, 48 h, read-out: % growth
# CCRF-CEM = assay type: cell-based; settings: Homo sapiens, one dose 10^-5 M, 48 h
# MDA-MB-435 = assay type: cell-based; settings: Homo sapiens, one dose 10^-5 M, 48 h, read-out: % growth
# HT29 = assay type: cell-based; settings: Homo sapiens, HT-29, one dose 10^-5 M, 48 h
# EKVX = assay type: cell-based; settings: Homo sapiens, one dose 10^-5 M, 48 h
# A549/ATCC = assay type: cell-based; settings: Homo sapiens, one dose 10^-5 M, 48 h
# HOP-62 = assay type: cell-based; settings: Homo sapiens, one dose 10^-5 M, 48 h
# UACC-257 = assay type: cell-based; settings: Homo sapiens, one dose 10^-5 M, 48 h
# RXF 393 = assay type: cell-based; settings: Homo sapiens, RXF 393, 48 h, one dose 10^-5 M, 48 h, read-out: % growth
# SW-620 = assay type: cell-based; settings: Homo sapiens, one dose 10^-5 M, 48 h
# HOP-92 = assay type: cell-based; settings: Homo sapiens, one dose 10^-5 M, 48 h
# SK-MEL-28 = assay type: cell-based; settings: Homo sapiens, one dose 10^-5 M, 48 h
# T-47D = assay type: cell-based; settings: Homo sapiens, T47D, one dose 10^-5 M, 48 h, read-out: % growth
# LOX IMVI = assay type: cell-based; settings: Homo sapiens, one dose 10^-5 M, 48 h, read-out: % growth
# NCI-H226 = assay type: cell-based; settings: Homo sapiens, one dose 10^-5 M, 48 h
# SK-OV-3 = assay type: cell-based; settings: Homo sapiens, one dose 10^-5 M, 48 h
# COLO 205 = assay type: cell-based; settings: Homo sapiens, one dose 10^-5 M, 48 h
# SF-268 = assay type: cell-based; settings: Homo sapiens, one dose 10^-5 M, 48 h, read-out: % growth
# MDA-MB-231/ATCC = assay type: cell-based; settings: Homo sapiens, one dose 10^-5 M, 48 h
# OVCAR-8 = assay type: cell-based; settings: Homo sapiens, one dose 10^-5 M, 48 h
# CAKI-1 = assay type: cell-based; settings: Homo sapiens, CAKI-1, 48 h, one dose 10^-5 M, 48 h
# MOLT-4 = assay type: cell-based; settings: Homo sapiens, one dose 10^-5 M, 48 h, read-out: % growth
# UACC-62 = assay type: cell-based; settings: Homo sapiens, one dose 10^-5 M, 48 h
# NCI-H460 = assay type: cell-based; settings: Homo sapiens, one dose 10^-5 M, 48 h, read-out: % growth
# HCT-15 = assay type: cell-based; settings: Homo sapiens, one dose 10^-5 M, 48 h, read-out: % growth
# SK-MEL-5 = assay type: cell-based; settings: Homo sapiens, one dose 10^-5 M, 48 h, read-out: % growth
# OVCAR-3 = assay type: cell-based; settings: Homo sapiens, one dose 10^-5 M, 48 h
# A498 = assay type: cell-based; settings: Homo sapiens, one dose 10^-5 M, 48 h
# NCI/ADR-RES = assay type: cell-based; settings: Homo sapiens, one dose 10^-5 M, 48 h
# RPMI-8226 = assay type: cell-based; settings: Homo sapiens, one dose 10^-5 M, 48 h
# BT-549 = assay type: cell-based; settings: Homo sapiens, one dose 10^-5 M, 48 h
# SNB-19 = assay type: cell-based; settings: Homo sapiens, one dose 10^-5 M, 48 h, read-out: % growth
# 786-0 = assay type: cell-based; settings: Homo sapiens, one dose 10^-5 M, 48 h
# ACHN = assay type: cell-based; settings: Homo sapiens, one dose 10^-5 M, 48 h
# HCC-2998 = assay type: cell-based; settings: Homo sapiens, one dose 10^-5 M, 48 h
# DU-145 = assay type: cell-based; settings: Homo sapiens, one dose 10^-5 M, 48 h
# OVCAR-5 = assay type: cell-based; settings: Homo sapiens, one dose 10^-5 M, 48 h
# SK-MEL-2 = assay type: cell-based; settings: Homo sapiens, one dose 10^-5 M, 48 h
# PC-3 = assay type: cell-based; settings: Homo sapiens, one dose 10^-5 M, 48 h
# MDA-MB-468 = assay type: cell-based; settings: Homo sapiens, one dose 10^-5 M, 48 h
# SF-539 = assay type: cell-based; settings: Homo sapiens, one dose 10^-5 M, 48 h
# OVCAR-4 = assay type: cell-based; settings: Homo sapiens, one dose 10^-5 M, 48 h
# MALME-3M = assay type: cell-based; settings: Homo sapiens, one dose 10^-5 M, 48 h
# NCI-H522 = assay type: cell-based; settings: Homo sapiens, one dose 10^-5 M, 48 h
# TK-10 = assay type: cell-based; settings: Homo sapiens, one dose 10^-5 M, 48 h
# M14 = assay type: cell-based; settings: Homo sapiens, one dose 10^-5 M, 48 h
# U251 = assay type: cell-based; settings: Homo sapiens, U-251, one dose 10^-5 M, 48 h
# UO-31 = assay type: cell-based; settings: Homo sapiens, UO-31, 48 h, one dose 10^-5 M, 48 h
# HL-60(TB) = assay type: cell-based; settings: Homo sapiens, one dose 10^-5 M, 48 h
# K-562 = assay type: cell-based; settings: Homo sapiens, K562, one dose 10^-5 M, 48 h
# HS 578T = assay type: cell-based; settings: Homo sapiens; one dose 10^-5 M, 48 h; HS 578T; read-out: % growth
# SN12C = assay type: cell-based, human; settings: Homo sapiens, one dose 10^-5 M, 48 h
# NCI-H23 = assay type: cell-based; settings: Homo sapiens, one dose 10^-5 M, 48 h, read-out: % growth
# [2] = MTT cytotoxicity on normal cells; assay type: cell-based; settings: human, WI-38 cells (normal lung fibroblasts), WI-38 normal cells, mean ± SD of three experiments, read-out: IC50 (cytotoxic activity)
# Procedure: The American Type Culture Collection provided WI-38 cells (normal lung cells). The cells were grown in DMEM with 10% heat-inactivated FBS (Hyclone), 10 µg/ml of insulin (Sigma), and 1% penicillin-streptomycin. The remaining chemicals and reagents were all from Sigma or Invitrogen. The MTT test was used to evaluate cytotoxicity, as described previously. Graph pad Prism software (San Diego, CA) was used to estimate the 50% inhibitory concentration (IC50) from dose response curve graphic plots for each conc.
compound,measurement,setting,value
"CN(C)c1ccc(-c2nc(S)nc(N)c2-c2ncn[nH]2)cc1 [Compound 5a, 4-Aamino-6-[4-(dimethylamino)phenyl]-5-(1H-1,2,4-triazol-5-yl)pyrimidine-2-thiol]",% growth at 10 µM,KM12,105%
same,activity at 10 µM,[1],107%
same,activity on all 60 cancer cell lines tested (in words),[1]; one dose,weak activity
same,% cell growth at 10 µM,SF-295,104%
same,percent cell growth at 10 µM,SR,85.7%
same,activity at 10 µM,MCF7,96.6%
same,activity at 10 µM,HCT-116,102%
same,activity at 10 µM,IGROV1,109%
same,% cell growth at 10 µM,CCRF-CEM,103%
same,activity at 10 µM,MDA-MB-435,113%
same,% growth at 10 µM,HT29,111%
same,% cell growth at 10 µM,EKVX,121%
same,% growth at 10 µM,A549/ATCC,108%
same,% growth at 10 µM,HOP-62,103%
same,percent cell growth at 10 µM,UACC-257,113%
same,activity at 10 µM,RXF 393,113%
same,% growth at 10 µM,SW-620,106%
same,% growth at 10 µM,HOP-92,100%
same,% cell growth at 10 µM,SK-MEL-28,119%
same,activity at 10 µM,T-47D,109%
same,activity at 10 µM,LOX IMVI,109%
same,% growth at 10 µM,NCI-H226,110%
same,% growth at 10 µM,SK-OV-3,103%
same,% growth at 10 µM,COLO 205,116%
same,activity at 10 µM,SF-268,107%
same,% growth at 10 µM,MDA-MB-231/ATCC,107%
same,% growth of cells at 10 µM,OVCAR-8,113%
same,% growth at 10 µM,CAKI-1,89.7%
same,activity at 10 µM,MOLT-4,100%
same,% growth at 10 µM,UACC-62,102%
same,activity at 10 µM,NCI-H460,111%
same,activity at 10 µM,HCT-15,116%
same,activity at 10 µM,SK-MEL-5,108%
same,% growth at 10 µM,OVCAR-3,111%
same,% growth at 10 µM,A498,131%
same,cell growth percent at 10 µM,NCI/ADR-RES,115%
same,% growth at 10 µM,RPMI-8226,109%
same,% cell growth at 10 µM,BT-549,98.1%
same,activity at 10 µM,SNB-19,102%
same,% growth at 10 µM,786-0,96.3%
same,% growth at 10 µM,ACHN,119%
same,% growth at 10 µM,HCC-2998,112%
same,% growth at 10 µM,DU-145,115%
same,percent cell growth at 10 µM,OVCAR-5,120%
same,% growth at 10 µM,SK-MEL-2,116%
same,percent cell growth at 10 µM,PC-3,102%
same,percent cell growth at 10 µM,MDA-MB-468,110%
same,% growth at 10 µM,SF-539,108%
same,% growth at 10 µM,OVCAR-4,115%
same,% growth at 10 µM,MALME-3M,96.7%
same,% growth at 10 µM,NCI-H522,101%
same,% cell growth at 10 µM,TK-10,117%
same,% growth at 10 µM,M14,105%
same,% growth at 10 µM,U251,111%
same,% cell growth at 10 µM,UO-31,93.9%
same,% growth at 10 µM,HL-60(TB),84.4%
same,% growth at 10 µM,K-562,89.8%
same,activity at 10 µM,HS 578T,113%
same,% growth at 10 µM,SN12C,106%
same,activity at 10 µM,NCI-H23,108%
"Nc1nc(S)nc(-c2ccc(Cl)cc2Cl)c1-c1ncn[nH]1 [Compound 5c, 4-Amino-6–(2,4-dichlorophenyl)-5-(1H-1,2,4-triazol-5-yl)pyrimidine-2-thiol]",% growth at 10 µM,KM12,103%
same,activity at 10 µM,[1],100%
same,% cell growth at 10 µM,SF-295,100%
same,percent cell growth at 10 µM,SR,83.2%
same,activity at 10 µM,MCF7,94.1%
same,activity at 10 µM,HCT-116,97.8%
same,activity at 10 µM,IGROV1,102%
same,% cell growth at 10 µM,CCRF-CEM,92.7%
same,activity at 10 µM,MDA-MB-435,105%
same,% growth at 10 µM,HT29,102%
same,% cell growth at 10 µM,EKVX,50%
same,% growth at 10 µM,A549/ATCC,102%
same,% growth at 10 µM,HOP-62,93.9%
same,percent cell growth at 10 µM,UACC-257,112%
same,activity at 10 µM,RXF 393,110%
same,% growth at 10 µM,SW-620,102%
same,% growth at 10 µM,HOP-92,106%
same,% cell growth at 10 µM,SK-MEL-28,115%
same,activity at 10 µM,T-47D,106%
same,activity at 10 µM,LOX IMVI,104%
same,% growth at 10 µM,NCI-H226,110%
same,% growth at 10 µM,SK-OV-3,94.2%
same,% growth at 10 µM,COLO 205,104%
same,activity at 10 µM,SF-268,101%
same,% growth at 10 µM,MDA-MB-231/ATCC,104%
same,% growth of cells at 10 µM,OVCAR-8,103%
same,% growth at 10 µM,CAKI-1,90.8%
same,activity at 10 µM,MOLT-4,91.4%
same,% growth at 10 µM,UACC-62,95.3%
same,activity at 10 µM,NCI-H460,108%
same,activity at 10 µM,HCT-15,102%
same,activity at 10 µM,SK-MEL-5,94.8%
same,% growth at 10 µM,OVCAR-3,109%
same,% growth at 10 µM,A498,120%
same,cell growth percent at 10 µM,NCI/ADR-RES,106%
same,% growth at 10 µM,RPMI-8226,103%
same,% cell growth at 10 µM,BT-549,97.3%
same,activity at 10 µM,SNB-19,97.1%
same,% growth at 10 µM,786-0,90.7%
same,% growth at 10 µM,ACHN,109%
same,% growth at 10 µM,HCC-2998,105%
same,% growth at 10 µM,DU-145,112%
same,percent cell growth at 10 µM,OVCAR-5,107%
same,% growth at 10 µM,SK-MEL-2,104%
same,percent cell growth at 10 µM,PC-3,95.8%
same,percent cell growth at 10 µM,MDA-MB-468,104%
same,% growth at 10 µM,SF-539,101%
same,% growth at 10 µM,OVCAR-4,105%
same,% growth at 10 µM,MALME-3M,98.2%
same,% growth at 10 µM,NCI-H522,88.8%
same,% cell growth at 10 µM,TK-10,114%
same,% growth at 10 µM,M14,98.7%
same,% growth at 10 µM,U251,105%
same,% cell growth at 10 µM,UO-31,89.9%
same,% growth at 10 µM,HL-60(TB),70.9%
same,% growth at 10 µM,K-562,98%
same,activity at 10 µM,HS 578T,98.6%
same,% growth at 10 µM,SN12C,107%
same,activity at 10 µM,NCI-H23,105%
C[C@H](Nc1ncnc2[nH]cnc12)c1cc2cccc(Cl)c2c(=O)n1-c1ccccc1 [Duvelisib],IC50,[2],22.8 ± 0.65 µM
